Test [1] has as its target YAP-TEAD protein interaction (His-TEAD1 (209-426) protein, Bio-YAP peptide (60-100)) (Homo sapiens, UniProt P28347). Kind of test: YAP-TEAD protein interaction HTRF experiment. It is filed as binding. Particulars: His-TEAD1 (209-426) 10 nM, Bio-YAP peptide 50 nM, read-out: Activity of each compound in blocking YAP-TEAD protein interaction (grades of IC50 values). A digest of the protocol:
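His-TEAD1 (209-426) at 10 nM final was preincubated 20 min at RT with compounds (10-point 3-fold dilutions, duplicates, 1% DMSO), then Bio-YAP peptide, 10 min. Anti-His-Eu cryptate/streptavidin-XL665 added for 1 h at RT; HTRF read at ex 320 nm, Em665/Em620 ratio ×10000, IC50 from % inhibition.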

The next test deals with YAP/TEAD reporter gene. Kind of test: YAP/TEAD reporter gene inhibition experiment in SF268-YAP-Luc cells. It is filed as cell-based. Particulars: SF268-YAP-Luc cells, 24 hours, Renila luciferase signal corrected for cell viability; read-out: Activity of each compound in inhibiting the expression of YAP/TEAD reporter gene (grades of IC50 values). The protocol: In this example, the inhibition of the compound on the target was detected by the signal of the reporter gene in the stable cell line SF268-YAP-Luc containing the YAP/TEAD reporter gene.
A sequence containing 6 tandem YAP/TEAD binding sites and a basal transcription promoter was constructed on the vector pGL4.76 of Promega Company. The constructed reporter gene vector was transfected into SF268 cells (NCI DCTD tumor/cell line repository) and screened with 0.5 μg/mL hygromycin to obtain SF268-YAP-Luc stable strain.
SF268-YAP-Luc cells were seeded into a 96-well plate at a density of 3000 cells per well with a volume of 100 μL per well (cell culture medium composition: RPMI1640 (Gibco-A10491-01)+10% FBS (Gibco-10099-141C)+1% penicillin-streptomycin (5,000 U/mL, Gibco-15070-063)), and the cells were incubated overnight in a 37° C., 5% carbon dioxide incubator.
On the next day, the compounds to be tested were 3-fold diluted, and a total of 8 concentration gradients were set up; a certain volume of DMSO or the compounds to be tested was added to each well, respectively, and 2 replicates were set up for each concentration, and the final concentration of DMSO was controlled to be no higher than 0.5%. The cells were incubated for 24 hours in a 37° C., 5% carbon dioxide incubator. Two identical parallel plates were set up for cell seeding and compound treatment.
Renila-Glo luciferase assay system kit (Promega, E2720) was used to detect the reporter gene signals of the control group and treatment group. 70 μL of Renila-Glo was added to each well, mixed well, and incubated at room temperature for 10 minutes. The signal was read using EnVision® Multilabel Plate Reader (Perkin Elmer).
Cell viability was detected in the control group and treatment group using CellTiter-Glo Luminescent Cell Viability Assay kit (Promega, G7570). 50 μL of CellTiter-Glo was added to each well, mixed well, and incubated at room temperature for 10 minutes. The signal was read using En Vision® Multilabel Plate Reader (Perkin Elmer).
The signal of Renila luciferase after correcting for cell viability was analyzed, and the inhibition rate of the compound on the reporter gene was calculated. The inhibition percentage (%) is calculated by the following formula: […]
Using Graphpad Prism software, the IC50 values for the compounds' inhibitory activity against Renila luciferase signaling were calculated.

For the next test, the system named is MSTO-211H cells. Kind of test: Cell proliferation inhibition experiment (CellTiter-Glo). It is filed as cell-based. The conditions noted are these: 96 hours, read-out: Inhibitory activity of each compound on the proliferation of MSTO-211H cells (grades of IC50 values). A digest of the protocol: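 MSTO-211H cells (1500/well, RPMI1640 + 10% FBS) were plated overnight at 37° C, 5% CO2, then exposed in duplicate to 9 three-fold compound dilutions (DMSO ≤0.5% final) for 96 hours. Viability was read as CellTiter-Glo luminescence after 10 min at room temperature. IC50 was derived from inhibition of the CTG signal.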

pIC50: −log10 of the molar value. Where two headings read alike, the source gives them in different places.

Sequence of YAP-TEAD protein interaction (His-TEAD1 (209-426) protein, Bio-YAP peptide (60-100)) (P28347 209-426): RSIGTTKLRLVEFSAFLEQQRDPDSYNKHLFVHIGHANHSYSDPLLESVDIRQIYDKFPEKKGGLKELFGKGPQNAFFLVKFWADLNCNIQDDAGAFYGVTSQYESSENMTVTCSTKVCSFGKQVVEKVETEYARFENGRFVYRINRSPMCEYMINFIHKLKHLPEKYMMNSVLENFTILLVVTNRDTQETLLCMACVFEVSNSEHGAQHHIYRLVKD

With `NC(=O)c1cc2c(c(F)c1-c1c(Cl)c(F)cc3c1C[C@](c1ccccc1)([C@@H]1CCCN1)O3)OCCO2` (atropisomer, axis not shown) [Compound 1, 7-((2S,4S)-5-Chloro-6-fluoro-2-phenyl-2-((S)-pyrrolidin-2-yl)-2,3-dihydrobenzofuran-4-yl)-8-fluoro-2,3-dihydrobenzo[b][1,4]dioxine-6-carboxamide], the pIC50 in test [1] was above 7.30; in the test with YAP/TEAD reporter gene, above 7.30; with MSTO-211H cells (Homo sapiens), above 6.70.

`Cn1cc2c(n1)COc1c-2cc(C(N)=O)c(-c2c(Cl)c(F)cc3c2C[C@](c2ccccc2)([C@@H]2CCCN2)O3)c1F` (atropisomer, axis not shown) [Compound 3, (S)-7-((S)-5-Chloro-6-fluoro-2-phenyl-2-((S)-pyrrolidin-2-yl)-2,3-dihydrobenzofuran-4-yl)-6-fluoro-2-methyl-2,4-dihydrochromeno[3,4-c]pyrazole-8-carboxamide]: the values for the pIC50 (in test [1]; in the test on YAP/TEAD reporter gene; in the test with MSTO-211H cells (Homo sapiens)) were above 7.30, above 7.30 and above 6.70, respectively.

On to `Cn1cc2c(n1)Oc1c(cc(C(N)=O)c(-c3c(Cl)c(F)cc4c3C[C@](c3ccccc3)([C@@H]3CCCN3)O4)c1F)O2` (atropisomer, axis not shown) [Compound 8, (S)-7-((S)-5-Chloro-6-fluoro-2-phenyl-2-((S)-pyrrolidin-2-yl)-2,3-dihydrobenzofuran-4-yl)-8-fluoro-2-methyl-2H-benzo[5,6][1,4]dioxoino[2,3-c]pyrazole-6-carboxamide], for which the pIC50 was above 7.30 in test [1], above 7.30 in the test on YAP/TEAD reporter gene and above 6.70 in the test on MSTO-211H cells (Homo sapiens).

`CNC[C@@]1(c2ccccc2)Cc2c(cc(F)c(Cl)c2-c2c(C(N)=O)cn3ccnc3c2F)O1` (atropisomer, axis not shown) [Compound I-1]: the pIC50 in test [1] was above 7.30; in the test with YAP/TEAD reporter gene, above 7.30; in the test with MSTO-211H cells (Homo sapiens), above 6.70.

As for `NC(=O)c1cc2c(c(F)c1-c1c(Cl)c(F)cc3c1C[C@](c1ccccc1)([C@@H]1CCCN1)O3)OCC(=O)N2` (atropisomer, axis not shown) [Compound I-23, (S)-7-((S)-5-Chloro-6-fluoro-2-phenyl-2-((S)-pyrrolidin-2-yl)-2,3-dihydrobenzofuran-4-yl)-8-fluoro-3-oxo-3,4-dihydro-2H-benzo[b][1,4]oxazine-6-carboxamide], the pIC50 in test [1] is above 7.30; with YAP/TEAD reporter gene, 6.30 to 7.30; in the test on MSTO-211H cells (Homo sapiens), above 6.70.

With `CN1CCOc2c1cc(C(N)=O)c(-c1c(Cl)c(F)cc3c1C[C@](c1ccccc1)([C@@H]1CCCN1)O3)c2F` (atropisomer, axis not shown) [Compound I-24, (S)-7-((S)-5-Chloro-6-fluoro-2-phenyl-2-((S)-pyrrolidin-2-yl)-2,3-dihydrobenzofuran-4-yl)-8-fluoro-4-methyl-3,4-dihydro-2H-benzo[b][1,4]oxazine-6-carboxamide], the pIC50 in test [1] was above 7.30; with YAP/TEAD reporter gene it was above 7.30; in the test with MSTO-211H cells (Homo sapiens), above 6.70.

Consider `NC(=O)c1cc2c(c(F)c1-c1c(Cl)c(F)cc3c1C[C@](c1ccccc1)([C@@H]1CCCN1)O3)Oc1ccnnc1O2` [Compound 103, (S)-7-((S)-5-Chloro-6-fluoro-2-phenyl-2-((S)-pyrrolidin-2-yl)-2,3-dihydrobenzofuran-4-yl)-6-fluorobenzo[5,6][1,4]dioxo[2,3-c]pyridazine-8-carboxamide], for which the pIC50 is above 7.30 in test [1] and 5.30 to 6.30 in the test with MSTO-211H cells.

Regarding `NC(=O)c1cc2c(c(F)c1-c1c(Cl)c(F)cc3c1C[C@](c1ccccc1)([C@@H]1CCCN1)O3)Oc1ncccc1C2O` (stereo partly drawn) [Compound 104, (S)-8-((S)-5-Chloro-6-fluoro-2-phenyl-2-((S)-pyrrolidin-2-yl)-2,3-dihydrobenzofuran-4-yl)-9-fluoro-5-hydroxy-5H-benzo[2,3-b]pyridine-7-carboxamide], the results for the pIC50 (in test [1]; in the test with MSTO-211H cells (Homo sapiens)) were above 7.30 and 6.30 to 6.70, respectively.

Regarding `Cn1ncc2c(c1=O)Oc1cc(C(N)=O)c(-c3c(Cl)c(F)cc4c3CC(c3ccccc3)(C3CCCN3)O4)c(F)c1O2` [Compound 106, (S)-8-((S)-5-Chloro-6-fluoro-2-phenyl-2-((S)-pyrrolidin-2-yl)-2,3-dihydrobenzofuran-4-yl)-9-fluoro-3-methyl-4-oxo-3,4-dihydrobenzo[5,6][1,4]dioxo[2,3-d]pyridazine-7-carboxamide], the pIC50 in test [1] was above 7.30; in the test on MSTO-211H cells (Homo sapiens) it was 6.30 to 6.70.

As to `NC(=O)c1cc2c(c(F)c1-c1c(Cl)c(F)cc3c1C[C@](c1ccccc1)([C@@H]1CCCN1)O3)Oc1c(cnn(C3CC3)c1=O)O2` [Compound 111, (S)-8-((S)-5-Chloro-6-fluoro-2-phenyl-2-((S)-pyrrolidin-2-yl)-2,3-dihydrobenzofuran-4-yl)-2-cyclopropyl-9-fluoro-1-oxo-1,2-dihydrobenzo[5,6][1,4]dioxo[2,3-d]pyridazine-7-carboxamide], the pIC50 is above 7.30 in test [1] and above 6.70 in the test with MSTO-211H cells.

Turning to `NC(=O)c1cc2c(c(F)c1-c1c(Cl)c(F)cc3c1C[C@](c1ccccc1)([C@@H]1CCCN1)O3)Oc1cnn(C3CC3)c(=O)c1O2` [Compound 112, (S)-8-((S)-5-Chloro-6-fluoro-2-phenyl-2-((S)-pyrrolidin-2-yl)-2,3-dihydrobenzofuran-4-yl)-3-cyclopropyl-9-fluoro-4-oxo-3,4-dihydrobenzo[5,6][1,4]dioxo[2,3-d]pyridazine-7-carboxamide], the pIC50 in test [1] was above 7.30; in the test on MSTO-211H cells it was 6.30 to 6.70.

Turning to `CNC(=O)c1cc2c(c(F)c1-c1c(Cl)c(F)cc3c1CC(c1ccccc1)(C1CCCN1)O3)Oc1c(cnn(C)c1=O)O2` [Compound 124, (S)-8-((S)-5-Chloro-6-fluoro-2-phenyl-2-((S)-pyrrolidin-2-yl)-2,3-dihydrobenzofuran-4-yl)-9-fluoro-N,2-dimethyl-1-oxo-1,2-dihydrobenzo[5,6][1,4]dioxo[2,3-d]pyridazine-7-carboxamide], the pIC50 in test [1] is above 7.30; in the test with MSTO-211H cells (Homo sapiens), above 6.70.

`Cn1cnc2c(c1=O)Oc1c(cc(C(N)=O)c(-c3c(Cl)c(F)cc4c3CC(c3ccccc3)(C3CCCN3)O4)c1F)O2` [Compound 126, (S)-7-((S)-5-Chloro-6-fluoro-2-phenyl-2-((S)-pyrrolidin-2-yl)-2,3-dihydrobenzofuran-4-yl)-6-fluoro-3-methyl-4-oxo-3,4,7,8-tetrahydrobenzo[5,6][1,4]dioxo[2,3-d]pyrimidine-8-carboxamide]: the pIC50 in test [1] was above 7.30; in the test on MSTO-211H cells (Homo sapiens) it was above 6.70.

As for `NC(=O)c1cc2c(c(F)c1-c1c(Cl)c(F)cc3c1CC(c1ccccc1)(C1CCCN1)O3)OCCN2` [Compound I-19, (S)-7-((S)-5-Chloro-6-fluoro-2-phenyl-2-((S)-pyrrolidin-2-yl)-2,3-dihydrobenzofuran-4-yl)-8-fluoro-3,4-dihydro-2H-benzo[b][1,4]oxazine-6-carboxamide], the pIC50 (in test [1]; in the test with YAP/TEAD reporter gene) was above 7.30 each time.

Regarding “(S)-8-((S)-5-Chloro-6-fluoro-2-phenyl-2-((S)-pyrrolidin-2-yl)-2,3-dihydrobenzofuran-4-yl)-9-fluoro-3-methyl-4-oxo-3,4-dihydrobenzo[5,6][1,4]dioxo[2,3-d]pyrimidine-7-carboxamide [Compound 127]”, the figures for the pIC50 (in test [1]; in the test with MSTO-211H cells) were above 7.30 and 6.30 to 6.70, respectively.

These data come from US20250177408A1, “INHIBITOR OF INTERACTION BETWEEN YAP/TAZ AND TEAD, PREPARATION THEREOF, PHARMACEUTICAL COMPOSITION THEREOF AND USE THEREOF” (ETERN BIOPHARMA (SHANGHAI) CO., LTD., priority 2022, published 2025).
